Test results taken from PMC2765639 (PLoS Neglected Tropical Diseases, 2009).
Where two headings read alike, the source gives them in different places.

Columns and labels:
L. major promastigotes [1] = assay: L. major promastigote drug susceptibility assay (alamar blue, 384-well); assay type: cell-based, Leishmania major; settings: read-out: EC50 Ave ± SD, Lm
Method: Promastigotes were grown in vented T75 tissue culture flasks and maintained at 28°C. Promastigote cultures were initiated at 10^5 parasites per mL and subcultured every 3–4 days. L. major promastigote counts were performed in duplicate using a hemocytometer and particle counter (Beckman Coulter, Fullerton, CA). For HTS assays, L. major promastigote cultures were harvested during exponential growth phase (∼2.0–3.0×10^7 parasites/mL) and were not maintained past passage 20.
The final test compound concentration was 10 µM with a constant DMSO concentration of 1% in each assay well.
The L. major promastigote drug susceptibility assay was performed in a final volume of 25 µL using our previously described 384-well microtiter plate format,[39]. For automated HTS procedures, L. major promastigotes (5,000 parasites/22 µL) in complete growth medium were seeded into each well of the microtiter plates using a MAPC2 bulk dispenser (Titertek, Huntsville, AL). Test and control compounds (3 µL) were added to individual wells using a Velocity 11 V-prep (Menlo Park, CA) liquid handling system, equipped with a 384-well dispensing head, followed by centrifugation at 50 g for 1 min. […] Assay plates were allowed to incubate for 44 h at 28°C in the presence of 5% CO2. Five µL of alamar blue reagent were added to each assay plate well and incubated for 4 h at 28°C with 5% CO2. Data were captured on a Molecular Devices SpectraMax M5 (excitation560; emission590). Individual assay plate Z-factors were derived from the vehicle and positive controls, and data from plates were used only if Z-factors were >0.5 [50].
The assays were performed in duplicate with a final 10-point concentration range spanning 0.01–5.00 µM.

A549 = assay: Mammalian cell line specificity assay (alamar blue); assay type: cell-based, human; settings: Table S1, PMLSC library samples, read-out: EC50 Ave ± SD, A549
Method: Mammalian cells were cultured and maintained according to ATCC specifications (ATCC, Manassas, VA). Cell line drug susceptibility assays were performed in final volumes of 25 µL using our previously described 384-well microtiter plate format,[39]. […] Test and control compounds were added to individual wells as described above. Vehicle and positive controls were 1% DMSO and 10% DMSO, respectively (final well concentrations). Assay plates were incubated for 44–46 h at 37°C in the presence of 5% CO2 and growth inhibitory effects were determined as described above. Five µL of alamar blue reagent was added to each well and incubated for 2–4 h. Data were captured as described above.

L. major promastigotes [2] = assay: Flow cytometer-based growth inhibition and cytotoxicity assay; settings: Leishmania major, 48 h, read-out: L. major promastigote EC50 (AVE±SD) Confirmation Flow Cytometry
[3] = test system: L. major axenic amastigote-like population; assay: L. major axenic amastigote-like alamar blue assay (pH 4.9); assay type: cell-based, Leishmania major; settings: Leishmania major, 144 h, pH 4.9, read-out: L. major axenic amastigote-like EC50 (AVE±SD) Confirmation Alamar Blue
[4] = Table S1, PMLSC library samples, 10-point 0.01–5.00 µM

Compound	EC50 (L. major promastigotes [1]; [4]) [nM]	EC50 (A549) [µM]	EC50 (L. major promastigotes [1]; Leishmania major) [nM]	EC50 (L. major promastigotes [2]) [nM]	EC50 (A549; Homo sapiens, A549) [µM]	EC50 [3] [µM]
[O-][N+]1=c2ccc(Nc3ccccc3)cc2=NC12CCCCC2 [CID 657546]	845 ± 136	> 5	–	–	–	–
Cc1cc(C)nc(/N=C2\SNSC2Cl)c1 (stereo not shown) [CID 757789]	–	–	353 ± 25	1940 ± 150	> 5	3.2 ± 0.8
O=[N+]([O-])c1cc(-c2nnc(C34CC5CC(CC(C5)C3)C4)o2)cc([N+](=O)[O-])c1 [CID 380438]	117 ± 22	> 5	–	–	–	–
CCN(CC)CCN(C)C1CCC(c2ccccc2)CC1 (stereo not shown) [CID 742546]	–	–	827 ± 116	430 ± 300	> 5	> 50
Cc1[nH]c2c(Cl)cccc2c(=O)c1CN1CCCC1 [CID 728862]	–	–	392 ± 50	1770 ± 120	> 5	4.3 ± 0.8
N=c1c2c(n(Cc3ccccc3)c3c1CCC3)CCC2 [CID 6603247]	83 ± 5	> 5	–	–	–	–
O=C(NCC(c1cccnc1)N1CCN(c2ccc(F)cc2)CC1)Oc1ccccc1 (stereo not shown) [CID 3242548]	111 ± 10	> 5	–	–	–	–
NCC12CC3CC(C1)CC(c1ccc(Cl)cc1)(C3)C2 [CID 16192591]	357 ± 56	3.75 ± 0.623	–	–	–	–

Second part, led by results:

EC50 (L. major promastigotes [1]; [4]) [nM]	EC50 (A549) [µM]	Compound	EC50 (L. major promastigotes [1]; Leishmania major) [nM]	EC50 (L. major promastigotes [2]) [nM]	EC50 (A549; Homo sapiens, A549) [µM]	EC50 [3] [µM]
505 ± 54	> 5	O=C(c1ccccc1)c1c2c(cc3sc4ccccc4[n+]13)-c1cccc3cccc-2c13 [CID 15944971]	–	–	–	–
723 ± 24	> 5	Cc1nnc(Nc2ccccn2)c2ccccc12 [CID 645317]	–	–	–	–
211 ± 47	> 5	Cc1ccccc1NC1=C/C(=N\S(=O)(=O)c2cccs2)c2ccccc2C1=O [CID 11834470]	–	–	–	–
635 ± 26	4.7 ± 0.311	Nc1cccc2nc3ccccc3cc12 [CID 11352]	–	–	–	–
571 ± 113	> 5	CC12CCC(C(=O)N(CCCN3CCN(Cc4ccccc4)CC3)C1=O)C2(C)C (stereo not shown) [CID 16189740]	–	–	–	–
504 ± 66	> 5	CN(C)c1cc(NN=Cc2ccc(Cl)cc2)nc(N(C)C)n1 [CID 3769434]	–	–	–	–
50 ± 0.1	> 5	COC(=O)c1ccc2c(c1)C(C)(C)C(/C=C/c1ccc(OC)c(OC)c1OC)=[N+]2C [CID 9550329]	–	–	–	–
105 ± 10	> 5	COC(=O)c1cc2ccsc2n1Cc1nc(-c2ccc(OC)cc2)oc1C [CID 3236501]	–	–	–	–
255 ± 48	> 5	O=C1CC(c2ccccc2Br)c2cc3c(cc2N1)CCC3 (stereo not shown) [CID 2937831]	–	–	–	–
18 ± 2	2.33 ± 0.205	COc1ccc(-[n+]2c(C)cc(/C=C3\Sc4ccccc4N3C)cc2C)cc1 [CID 16196223]	–	–	–	–
255 ± 21	> 5	COc1ccc2c3c(cccc13)NN=C2C [CID 644992]	–	–	–	–
184 ± 12	> 5	Cc1ccc(-c2cc(-c3ccc(C)cc3)[n+](C)o2)cc1.[O-][Cl+3]([O-])([O-])[O-] [CID 15945780]	–	–	–	–
